According to ChEMBL document CHEMBL5608163, “Structure modification of anoplin for fighting resistant bacteria” (Eur J Med Chem, 2024):
≈ marks a conversion by molar mass, not a printed value. Square brackets hold non-standard residues; d marks the D form. Peptide text beside a SMILES is read from it. 2Nal = N[C@@H](Cc1ccc2ccccc2c1)C(=O)O; Cha = N[C@@H](CC1CCCCC1)C(=O)O

How the values were obtained:
Staphylococcus aureus [1] = assay: Antibacterial activity against Staphylococcus aureus ATCC 25923 assessed as reduction in bacterial growth measured after 18 to 24 hrs by CLSI protocol-based Mueller-Hinton broth dilution method; type: functional; settings: time 18-24 hrs
Bacillus subtilis = assay: Antibacterial activity against Bacillus subtilis ATCC 23857 assessed as reduction in bacterial growth measured after 18 to 24 hrs by CLSI protocol-based Mueller-Hinton broth dilution method; type: functional; settings: time 18-24 hrs
Escherichia coli [2] = assay: Antibacterial activity against multi-drug resistant Escherichia coli clinical isolate 850 assessed as reduction in bacterial growth measured after 18 to 24 hrs by CLSI protocol-based Mueller-Hinton broth dilution method; type: functional; settings: time 18-24 hrs
Pseudomonas aeruginosa = assay: Antibacterial activity against multi-drug resistant Pseudomonas aeruginosa clinical isolate 119 assessed as reduction in bacterial growth measured after 18 to 24 hrs by CLSI protocol-based Mueller-Hinton broth dilution method; type: functional; settings: time 18-24 hrs
Klebsiella pneumoniae = assay: Antibacterial activity against Klebsiella pneumoniae ATCC 700603 assessed as reduction in bacterial growth measured after 18 to 24 hrs by CLSI protocol-based Mueller-Hinton broth dilution method; type: functional; settings: time 18-24 hrs
Acinetobacter baumannii = assay: Antibacterial activity against multi-drug resistant Acinetobacter baumannii clinical isolate 9840 assessed as reduction in bacterial growth measured after 18 to 24 hrs by CLSI protocol-based Mueller-Hinton broth dilution method; type: functional; settings: time 18-24 hrs
Staphylococcus aureus [3] = assay: Antibacterial activity against methicillin resistant Staphylococcus aureus ATCC 33591 assessed as inhibition of bacterial growth incubated for 16 to 20 hrs by broth micro-dilution method; type: functional; settings: time 16-20 hrs
Enterococcus faecium = assay: Antibacterial activity against Vancomycin resistant Enterococcus faecium ATCC 700221 assessed as inhibition of bacterial growth incubated for 16 to 20 hrs by broth micro-dilution method; type: functional; settings: time 16-20 hrs
[4] = Hemolytic activity in human RBC; type: toxicity, cell-based, Erythrocyte; settings: red blood cells
Staphylococcus aureus [5] = assay: Antibacterial activity against Staphylococcus aureus ATCC 29213 assessed as bacterial growth inhibition measured after 18 hrs by CLSI protocol based two-fold serial microdilution method; type: functional
Escherichia coli [6] = assay: Antibacterial activity against Escherichia coli ATCC 25922 assessed as reduction in bacterial growth; type: functional
Escherichia coli [7] = assay: Antibacterial activity against Escherichia coli ATCC 25922 assessed as reduction in bacterial growth incubated for 18 to 20 hrs by Mueller Hinton broth dilution method; type: functional; settings: time 18-20 hrs

Compound | MIC (Staphylococcus aureus [1]) [µM] | MIC (Bacillus subtilis) [µM] | MIC (Escherichia coli [2]) [µM] | MIC (Pseudomonas aeruginosa) [µM] | MIC (Klebsiella pneumoniae) [µM] | MIC (Acinetobacter baumannii) [µM] | MIC (Staphylococcus aureus [3]) [µM] | MIC (Enterococcus faecium) [µM] | HC50 [4] [µM] | MIC (Staphylococcus aureus [5]) [µM] | MIC (Escherichia coli [6]) [µM] | MIC (Escherichia coli [7]) [µM]
CC[C@H](C)[C@H](NC(=O)[C@H](CCCNC(=N)N)NC(=O)[C@@H](CCCCN)NC(=O)[C@H](CC(C)C)NC(=O)[C@H](CC(C)C)NC(=O)CNC(C)=O)C(=O)N[C@H](CCCCN)C(=O)N[C@H](C(=O)N[C@@H](CC(C)C)C(=O)N[C@@H](CC(C)C)C(=O)NC(Cc1cn(CCCC[C@H](NC(C)=O)C(=O)NCC(=O)N[C@@H](CC(C)C)C(=O)N[C@@H](CC(C)C)C(=O)N[C@@H](CCCCN)C(=O)N[C@H](CCCNC(=N)N)C(=O)N[C@H](C(=O)N[C@H](CCCCN)C(=O)N[C@H](C(=O)N[C@@H](CC(C)C)C(=O)N[C@@H](CC(C)C)C(N)=O)[C@@H](C)O)[C@@H](C)CC)nn1)C(N)=O)[C@@H](C)O (stereo not given in full) | 128 (≈ 338 µg/mL) | 4 (≈ 10.6 µg/mL) | 16 (≈ 42.2 µg/mL) | 16 (≈ 42.2 µg/mL) | 16 (≈ 42.2 µg/mL) | 8 (≈ 21.1 µg/mL) |  |  |  |  |  | 
CC[C@H](C)[C@H](NC(=O)[C@H](CCCNC(=N)N)NC(=O)[C@H](CCCCN)NC(=O)[C@@H](CC(C)C)NC(=O)[C@H](CC(C)C)NC(=O)CNC(C)=O)C(=O)N[C@@H](CCCCN)C(=O)N[C@H](C(=O)N[C@H](CC(C)C)C(=O)N[C@H](CC(C)C)C(=O)NC(Cc1cn(CCCC[C@H](NC(=O)[C@H](CC(C)C)NC(=O)[C@H](CC(C)C)NC(=O)[C@@H](NC(=O)[C@@H](CCCCN)NC(=O)[C@@H](NC(=O)[C@H](CCCNC(=N)N)NC(=O)[C@@H](CCCCN)NC(=O)[C@H](CC(C)C)NC(=O)[C@H](CC(C)C)NC(=O)CNC(C)=O)[C@@H](C)CC)[C@@H](C)O)C(N)=O)nn1)C(N)=O)[C@@H](C)O (stereo not given in full) | 32 (≈ 84.5 µg/mL) | 2 (≈ 5.28 µg/mL) | 4 (≈ 10.6 µg/mL) | 16 (≈ 42.2 µg/mL) | 16 (≈ 42.2 µg/mL) | 2 (≈ 5.28 µg/mL) |  |  |  |  |  | 
CC[C@H](C)[C@H](NC(=O)[C@H](CCCNC(=N)N)NC(=O)[C@@H](CCCCN)NC(=O)[C@H](CC(C)C)NC(=O)[C@H](CC(C)C)NC(=O)CNC(C)=O)C(=O)N[C@H](CCCCN)C(=O)N[C@H](C(=O)N[C@@H](CC(C)C)C(=O)N[C@@H](CC(C)C)C(=O)NC(Cc1cn(CCCC[C@H](NC(=O)[C@H](CC(C)C)NC(=O)[C@H](CC(C)C)NC(=O)[C@@H](NC(=O)[C@@H](CCCCN)NC(=O)[C@@H](NC(=O)[C@@H](CCCNC(=N)N)NC(=O)[C@H](CCCCN)NC(=O)[C@H](CC(C)C)NC(=O)[C@H](CC(C)C)NC(=O)CNC(C)=O)[C@@H](C)CC)[C@@H](C)O)C(N)=O)nn1)C(N)=O)[C@@H](C)O (stereo not given in full) | 64 (≈ 169 µg/mL) | 64 (≈ 169 µg/mL) | 16 (≈ 42.2 µg/mL) | 32 (≈ 84.5 µg/mL) | 64 (≈ 169 µg/mL) | 4 (≈ 10.6 µg/mL) |  |  |  |  |  | 
CC[C@@H](C)[C@@H](NC(=O)[C@H](CCCNC(=N)N)NC(=O)[C@H](CCCCN)NC(=O)[C@H](CC(C)C)NC(=O)[C@H](CC1CCCCC1)NC(=O)CN)C(=O)N[C@@H](CCCCN)C(=O)N[C@H](C(=O)N[C@@H](CC(C)C)C(=O)N[C@@H](CC1CCCCC1)C(N)=O)[C@@H](C)O |  |  |  |  |  |  | 56.8 (≈ 70.1 µg/mL) | 56.8 (≈ 70.1 µg/mL) |  |  |  | 
CC[C@H](C)[C@H](NC(=O)[C@H](CCCNC(=N)N)NC(=O)[C@H](CCCCN)NC(=O)[C@@H](CC(C)C)NC(=O)[C@H](CC(C)C)NC(=O)CNC(C)=O)C(=O)N[C@@H](CCCCN)C(=O)N[C@H](C(=O)N[C@H](CC(C)C)C(=O)N[C@H](CC(C)C)C(=O)NC(Cc1cn(CCCC[C@H](NC(C)=O)C(=O)NCC(=O)N[C@@H](CC(C)C)C(=O)N[C@@H](CC(C)C)C(=O)N[C@H](CCCCN)C(=O)N[C@@H](CCCNC(=N)N)C(=O)N[C@H](C(=O)N[C@H](CCCCN)C(=O)N[C@H](C(=O)N[C@@H](CC(C)C)C(=O)N[C@@H](CC(C)C)C(N)=O)[C@@H](C)O)[C@@H](C)CC)nn1)C(N)=O)[C@@H](C)O (stereo not given in full) | 32 (≈ 84.5 µg/mL) | 2 (≈ 5.28 µg/mL) | 4 (≈ 10.6 µg/mL) | 16 (≈ 42.2 µg/mL) | 8 (≈ 21.1 µg/mL) | 2 (≈ 5.28 µg/mL) |  |  |  |  |  | 
CC[C@H](C)[C@H](NC(=O)[C@H](Cc1ccccc1)NC(=O)[C@H](CCCCN)NC(=O)[C@H](CC(C)C)NC(=O)[C@H](CC(C)C)NC(=O)CN)C(=O)N[C@@H](CCCCN)C(=O)N[C@H](C(=O)N[C@@H](CC(C)C)C(=O)N[C@@H](CC(C)C)C(N)=O)[C@@H](C)O (H-GLLKFIKTLL-NH2) |  |  |  |  |  |  |  |  | 67.3 | 1.8 (≈ 2.06 µg/mL) | 1.8 (≈ 2.06 µg/mL) | 
CC[C@H](C)[C@H](NC(=O)[C@H](CCCCN)NC(=O)[C@H](CC(C)C)NC(=O)[C@H](CC(C)C)NC(=O)CN)C(=O)N[C@H](C(=O)N[C@@H](CCCCN)C(=O)N[C@H](C(=O)N[C@@H](CC(C)C)C(=O)N[C@@H](CC(C)C)C(N)=O)[C@@H](C)O)[C@@H](C)CC (H-GLLKIIKTLL-NH2) |  |  |  |  |  |  |  |  | 26.1 | 1.8 (≈ 2 µg/mL) | 1.8 (≈ 2 µg/mL) | 
CC(C)C[C@H](NC(=O)CN)C(=O)N[C@@H](CC(C)C)C(=O)N[C@@H](CCCCN)C(=O)N[C@@H](CCCCN)C(=O)N[C@@H](Cc1ccc2ccccc2c1)C(=O)N[C@@H](CCCCN)C(=O)N[C@@H](CCCCN)C(=O)N[C@@H](CC(C)C)C(=O)N[C@@H](CC1CCCCC1)C(N)=O (H-GLLKK[2Nal]KKL[Cha]-NH2) |  |  |  |  |  |  | 9.5 (≈ 12.1 µg/mL) | 3.2 (≈ 4.09 µg/mL) |  |  |  | 16 (≈ 20.4 µg/mL)
